Results taken from US20260325533A1, “CDK INHIBITOR COMPOUNDS” (ALEKSIA THERAPEUTICS, INC., priority 2023, published 2026).
Read-outs that look alike come from different tables or passages of the source.

Experiments:
Assay type in all cases: biochemical
[1] = target: CDK4/CCND3 (Homo sapiens, UniProt P11802); assay: CDK4 homogeneous time-resolved fluorescence (HTRF) kinase assay; conditions: CDK4/CCND
Method in brief: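 CDK4/CCND3 at 1.5 nM was preincubated with compound for 20 min at 23 °C, then reacted for 60 min with 1 mM ATP and 50 nM ULight-4E-BP1 (Thr37/46) peptide. The reaction was stopped with EDTA, and phosphorylation was read by HTRF with a Eu-anti-phospho antibody. IC50 values came from 11-point half-log titrations, typically from 10 μM.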

[2] = target: CDK2/CCNE1 (Homo sapiens, UniProt P24941); assay: CDK2 homogeneous time-resolved fluorescence (HTRF) kinase assay; conditions: CDK2/CCNE
Method in brief: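 CDK2/CCNE1 (3 nM) preincubated 20 min at 23 °C with compound, then reacted 60 min at 23 °C with 1 mM ATP and 50 nM ULight-4E-BP1 (Thr37/46) peptide. Stopped with EDTA, phospho-peptide detected by Eu-anti-phospho antibody (665 nm or 665/615 ratio). IC50 from 11-point half-log titrations typically starting at 10 μM.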

[3] = target: CDK1/CCNB1 (Homo sapiens, UniProt P06493); assay: CDK1 homogeneous time-resolved fluorescence (HTRF) kinase assay; conditions: CDK1/CCNB
Chain of CDK1/CCNB1 (P06493 whole entry): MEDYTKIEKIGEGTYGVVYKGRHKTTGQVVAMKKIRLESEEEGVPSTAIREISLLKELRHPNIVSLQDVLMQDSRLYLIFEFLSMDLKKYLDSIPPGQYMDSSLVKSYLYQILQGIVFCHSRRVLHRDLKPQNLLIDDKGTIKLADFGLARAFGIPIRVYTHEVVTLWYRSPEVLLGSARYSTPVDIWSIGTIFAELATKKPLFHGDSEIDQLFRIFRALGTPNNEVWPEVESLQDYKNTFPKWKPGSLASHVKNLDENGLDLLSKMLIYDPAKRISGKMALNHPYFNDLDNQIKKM
Chain of CDK1/CCNB1 (P14635 whole entry partner): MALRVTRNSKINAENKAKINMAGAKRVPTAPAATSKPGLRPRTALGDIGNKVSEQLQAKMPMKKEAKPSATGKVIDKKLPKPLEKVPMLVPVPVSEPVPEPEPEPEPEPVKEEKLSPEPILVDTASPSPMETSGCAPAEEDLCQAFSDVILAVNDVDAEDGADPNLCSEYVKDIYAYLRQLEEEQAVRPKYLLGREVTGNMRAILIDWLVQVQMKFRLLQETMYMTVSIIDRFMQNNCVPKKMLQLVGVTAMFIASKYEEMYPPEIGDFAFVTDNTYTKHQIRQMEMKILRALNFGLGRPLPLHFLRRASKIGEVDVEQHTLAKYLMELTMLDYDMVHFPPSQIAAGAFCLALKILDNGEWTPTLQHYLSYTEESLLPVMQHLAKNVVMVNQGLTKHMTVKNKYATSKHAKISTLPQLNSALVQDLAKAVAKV
Method in brief: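 HTRF assay with 0.5 nM CDK1/CCNB1, 1 mM ATP, 50 nM ULight-eIF4E-BP1 (Thr37/46) peptide; compound preincubated 20 min, reaction 60 min at 23 °C, EDTA stop, Eu-anti-phospho antibody detection. 11-point half-log titration from 10 μM, 1% DMSO; IC50 from 665 nm or 665/615 signal.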

[4] = target: CDK6/CCND1 (Homo sapiens, UniProt Q00534); assay: CDK6 homogeneous time-resolved fluorescence (HTRF) kinase assay; conditions: CDK6/CCND, 1 mM ATP
Chain of CDK6/CCND1 (Q00534 whole entry): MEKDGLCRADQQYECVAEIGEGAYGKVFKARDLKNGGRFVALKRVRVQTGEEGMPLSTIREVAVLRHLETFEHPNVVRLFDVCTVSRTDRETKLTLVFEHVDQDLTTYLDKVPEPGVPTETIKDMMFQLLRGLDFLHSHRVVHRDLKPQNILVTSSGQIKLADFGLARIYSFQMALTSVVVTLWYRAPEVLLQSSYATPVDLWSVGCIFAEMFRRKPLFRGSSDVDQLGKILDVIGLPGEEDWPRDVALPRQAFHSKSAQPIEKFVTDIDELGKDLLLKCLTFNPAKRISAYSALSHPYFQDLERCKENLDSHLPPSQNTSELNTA
Chain of CDK6/CCND1 (P24385 whole entry partner): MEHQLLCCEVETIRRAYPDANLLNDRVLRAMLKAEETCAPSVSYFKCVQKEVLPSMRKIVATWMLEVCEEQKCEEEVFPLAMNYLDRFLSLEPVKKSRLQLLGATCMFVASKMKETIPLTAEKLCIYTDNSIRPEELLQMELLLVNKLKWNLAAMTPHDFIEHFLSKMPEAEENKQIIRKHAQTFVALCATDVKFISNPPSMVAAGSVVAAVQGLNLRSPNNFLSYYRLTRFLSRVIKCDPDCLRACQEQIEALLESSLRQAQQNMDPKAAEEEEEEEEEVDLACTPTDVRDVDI
Method in brief: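 Enzyme pre-incubated 20 min at 23 °C with compound, then reacted 60 min at 23 °C with 1 mM ATP and 50 nM ULight-4E-BP1 (Thr37/46) peptide; 1 nM enzyme, 1% DMSO. EDTA-stopped, Eu-anti-phospho antibody TR-FRET read (665 nm or 665/615 ratio); 11-point half-log titration from 10 μM gave IC50.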

[5] = >250 nM, read-out: CDK4/CCND IC50, >250 nM
[6] = >250 nM, read-out: CDK1/CCNB IC50 >250 nM
[7] = >250 nM, read-out: CDK6/CCND IC50, >250 nM
[8] = 25-250 nM, read-out: CDK4/CCND IC50, 25-250 nM
[9] = <25 nM, read-out: CDK2/CCNE IC50, <25 nM
[10] = 25-250 nM, read-out: CDK6/CCND IC50, 25-250 nM
[11] = 25-250 nM, read-out: CDK2/CCNE IC50, 25-250 nM

Chain of CDK4/CCND3 (P11802 whole entry): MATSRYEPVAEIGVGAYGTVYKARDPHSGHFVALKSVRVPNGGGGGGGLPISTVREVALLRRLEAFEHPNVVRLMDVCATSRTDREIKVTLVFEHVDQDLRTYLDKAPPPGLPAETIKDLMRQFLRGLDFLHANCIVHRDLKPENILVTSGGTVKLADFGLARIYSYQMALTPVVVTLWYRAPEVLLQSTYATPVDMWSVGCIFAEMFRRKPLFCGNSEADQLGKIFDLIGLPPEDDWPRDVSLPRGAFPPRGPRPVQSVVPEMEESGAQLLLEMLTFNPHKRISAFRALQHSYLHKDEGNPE
Chain of CDK4/CCND3 (P30281 whole entry partner): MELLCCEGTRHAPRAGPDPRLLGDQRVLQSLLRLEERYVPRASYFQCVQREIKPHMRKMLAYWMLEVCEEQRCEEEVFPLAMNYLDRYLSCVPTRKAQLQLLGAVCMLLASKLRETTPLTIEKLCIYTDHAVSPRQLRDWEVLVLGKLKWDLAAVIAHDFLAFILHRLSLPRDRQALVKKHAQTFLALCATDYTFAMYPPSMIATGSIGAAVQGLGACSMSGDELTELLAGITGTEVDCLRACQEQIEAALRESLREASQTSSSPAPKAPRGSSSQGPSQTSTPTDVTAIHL

Row | IC50 [1, 5] | IC50 ([2]; >250 nM, read-out: CDK2/CCNE IC50, >250 nM) | IC50 [3, 6] | IC50 [4, 7] | IC50 [1, 8] | IC50 [2, 9] | IC50 ([3]; 25-250 nM, read-out: CDK1/CCNB IC50, 25-250 nM) | IC50 [4, 10] | IC50 [2, 11] | SMILES
1 | > 0.25 µM | > 0.25 µM | > 0.25 µM | > 0.25 µM | – | – | – | – | – | CS(=O)(=O)c1ccc(Nc2cc3c(C#Cc4cc(F)c(F)c(F)c4)nccc3cn2)cc1 [Ex 875, N-(4-(methylsulfonyl)phenyl)-5-((3,4,5-trifluorophenyl)ethynyl)-2,6-naphthyridin-3-amine]
2 | – | – | – | – | 0.025 to 0.25 µM | < 0.025 µM | 0.025 to 0.25 µM | 0.025 to 0.25 µM | – | CN1CCN(c2ccc(C#Cc3nccc4cnc(Nc5ccc(S(N)(=O)=O)cc5)cc34)cc2)CC1 [Ex 876, 4-((5-((4-(4-methylpiperazin-1-yl)phenyl)ethynyl)-2,6-naphthyridin-3-yl)amino)benzenesulfonamide]
3 | > 0.25 µM | – | > 0.25 µM | > 0.25 µM | – | – | – | – | 0.025 to 0.25 µM | CC#Cc1nccc2cnc(Nc3ccc(S(=O)(=O)Nc4nccc(N5CCOCC5)n4)cc3)cc12 [Ex 878, N-(4-morpholinopyrimidin-2-yl)-4-((5-(prop-1-yn-1-yl)-2,6-naphthyridin-3-yl)amino)benzenesulfonamide]
4 | > 0.25 µM | – | > 0.25 µM | > 0.25 µM | – | – | – | – | 0.025 to 0.25 µM | CC#Cc1nccc2cnc(Nc3ccc(S(=O)(=O)Nc4nccc(OC)n4)cc3)cc12 [Ex 879, N-(4-methoxypyrimidin-2-yl)-4-((5-(prop-1-yn-1-yl)-2,6-naphthyridin-3-yl)amino)benzenesulfonamide]
5 | > 0.25 µM | – | > 0.25 µM | > 0.25 µM | – | < 0.025 µM | – | – | – | Cc1c(-c2nccc3cnc(Nc4ccc(S(=O)(=O)Nc5ncc(F)cn5)cc4)cc23)ccc2c1cnn2CC(C)(C)O [Ex 880, N-(5-fluoropyrimidin-2-yl)-4-((5-(1-(2-hydroxy-2-methylpropyl)-4-methyl-1H-indazol-5-yl)-2,6-naphthyridin-3-yl)amino)benzenesulfonamide]
6 | > 0.25 µM | – | > 0.25 µM | > 0.25 µM | – | – | – | – | 0.025 to 0.25 µM | Cc1c(-c2nccc3cnc(Nc4ccc(S(=O)(=O)Nc5nccc(F)n5)cc4)cc23)ccc2c1cnn2CC(C)(C)O [Ex 881, N-(4-fluoropyrimidin-2-yl)-4-((5-(1-(2-hydroxy-2-methylpropyl)-4-methyl-1H-indazol-5-yl)-2,6-naphthyridin-3-yl)amino)benzenesulfonamide]
7 | > 0.25 µM | – | > 0.25 µM | > 0.25 µM | – | – | – | – | 0.025 to 0.25 µM | COc1cncc(C#Cc2nccc3cnc(Nc4ccc(S(C)(=O)=O)cc4)cc23)c1 [Ex 882, 5-((5-methoxypyridin-3-yl)ethynyl)-N-(4-(methylsulfonyl)phenyl)-2,6-naphthyridin-3-amine]
8 | > 0.25 µM | – | > 0.25 µM | > 0.25 µM | – | – | – | – | 0.025 to 0.25 µM | Cc1nc[nH]c1C#Cc1nccc2cnc(Nc3ccc(S(C)(=O)=O)cc3)cc12 [Ex 883, 5-((4-methyl-1H-imidazol-5-yl)ethynyl)-N-(4-(methylsulfonyl)phenyl)-2,6-naphthyridin-3-amine]
9 | > 0.25 µM | – | > 0.25 µM | > 0.25 µM | – | – | – | – | 0.025 to 0.25 µM | O=c1ccc(C#Cc2nccc3cnc(Nc4cnc(O)c(N5CCNCC5)c4)cc23)n[nH]1 [Ex 886, 6-((7-((6-hydroxy-5-(piperazin-1-yl)pyridin-3-yl)amino)-2,6-naphthyridin-1-yl)ethynyl)pyridazin-3(2H)-one]
10 | > 0.25 µM | – | > 0.25 µM | > 0.25 µM | – | – | – | – | 0.025 to 0.25 µM | Cc1c(-c2nccc3cnc(Nc4cnc(O)c(N5CCNCC5)c4)cc23)ccc2c1cnn2CC(C)(C)O [Ex 888, 5-((5-(1-(2-hydroxy-2-methylpropyl)-4-methyl-1H-indazol-5-yl)-2,6-naphthyridin-3-yl)amino)-3-(piperazin-1-yl)pyridin-2-ol]
11 | > 0.25 µM | – | > 0.25 µM | > 0.25 µM | – | – | – | – | 0.025 to 0.25 µM | CC#Cc1nccc2cnc(Nc3ccc(S(=O)(=O)Nc4ncc(C)cn4)cc3)cc12 [Ex 889, N-(5-methylpyrimidin-2-yl)-4-((5-(prop-1-yn-1-yl)-2,6-naphthyridin-3-yl)amino)benzenesulfonamide]
12 | > 0.25 µM | – | > 0.25 µM | > 0.25 µM | – | – | – | – | 0.025 to 0.25 µM | CC#Cc1nccc2cnc(Nc3ccc(S(=O)(=O)Nc4nc(OC)cc(OC)n4)cc3)cc12 [Ex 890, N-(4,6-dimethoxypyrimidin-2-yl)-4-((5-(prop-1-yn-1-yl)-2,6-naphthyridin-3-yl)amino)benzenesulfonamide]
13 | > 0.25 µM | – | > 0.25 µM | > 0.25 µM | – | – | – | – | 0.025 to 0.25 µM | CC#Cc1nccc2cnc(Nc3ccc(S(=O)(=O)Nc4nccc(C(F)(F)F)n4)cc3)cc12 [Ex 891, 4-((5-(prop-1-yn-1-yl)-2,6-naphthyridin-3-yl)amino)-N-(4-(trifluoromethyl)pyrimidin-2-yl)benzenesulfonamide]
14 | > 0.25 µM | – | > 0.25 µM | > 0.25 µM | – | < 0.025 µM | – | – | – | Cc1c(-c2nccc3cnc(Nc4ccc(S(=O)(=O)Nc5nccc(N6CCN(C)CC6)n5)cc4)cc23)ccc2c1cnn2CC(C)(C)O [Ex 892, 4-((5-(1-(2-hydroxy-2-methylpropyl)-4-methyl-1H-indazol-5-yl)-2,6-naphthyridin-3-yl)amino)-N-(4-(4-methylpiperazin-1-yl)pyrimidin-2-yl)benzenesulfonamide]
15 | > 0.25 µM | – | > 0.25 µM | > 0.25 µM | – | < 0.025 µM | – | – | – | Cc1c(-c2nccc3cnc(Nc4ccc(S(=O)(=O)Nc5nccc(N6CCOCC6)n5)cc4)cc23)ccc2c1cnn2CC(C)(C)O [Ex 893, 4-((5-(1-(2-hydroxy-2-methylpropyl)-4-methyl-1H-indazol-5-yl)-2,6-naphthyridin-3-yl)amino)-N-(4-morpholinopyrimidin-2-yl)benzenesulfonamide]
16 | > 0.25 µM | – | > 0.25 µM | > 0.25 µM | – | – | – | – | 0.025 to 0.25 µM | Cc1c(-c2nccc3cnc(Nc4ccc(S(=O)(=O)Nc5ncc(C(F)(F)F)cn5)cc4)cc23)ccc2c1cnn2CC(C)(C)O [Ex 894, 4-((5-(1-(2-hydroxy-2-methylpropyl)-4-methyl-1H-indazol-5-yl)-2,6-naphthyridin-3-yl)amino)-N-(5-(trifluoromethyl)pyrimidin-2-yl)benzenesulfonamide]
17 | > 0.25 µM | – | > 0.25 µM | > 0.25 µM | – | – | – | – | 0.025 to 0.25 µM | Cc1c(-c2nccc3cnc(Nc4ccc(S(=O)(=O)Nc5ncc(Cl)cn5)cc4)cc23)ccc2c1cnn2CC(C)(C)O [Ex 895, N-(5-chloropyrimidin-2-yl)-4-((5-(1-(2-hydroxy-2-methylpropyl)-4-methyl-1H-indazol-5-yl)-2,6-naphthyridin-3-yl)amino)benzenesulfonamide]
18 | – | – | > 0.25 µM | – | 0.025 to 0.25 µM | < 0.025 µM | – | 0.025 to 0.25 µM | – | Cc1cnc(NS(=O)(=O)c2ccc(Nc3cc4c(-c5ccc6c(cnn6CC(C)(C)O)c5C)nccc4cn3)cc2)nc1 [Ex 896, 4-((5-(1-(2-hydroxy-2-methylpropyl)-4-methyl-1H-indazol-5-yl)-2,6-naphthyridin-3-yl)amino)-N-(5-methylpyrimidin-2-yl)benzenesulfonamide]
19 | > 0.25 µM | – | > 0.25 µM | – | – | < 0.025 µM | – | 0.025 to 0.25 µM | – | COc1ccnc(NS(=O)(=O)c2ccc(Nc3cc4c(-c5ccc6c(cnn6CC(C)(C)O)c5C)nccc4cn3)cc2)n1 [Ex 897, 4-((5-(1-(2-hydroxy-2-methylpropyl)-4-methyl-1H-indazol-5-yl)-2,6-naphthyridin-3-yl)amino)-N-(4-methoxypyrimidin-2-yl)benzenesulfonamide]
